According to ChEMBL document CHEMBL2331237, “Amides of 4-hydroxy-8-methanesulfonylamino-quinoline-2-carboxylic acid as zinc-dependent inhibitors of Lp-PLA₂” (Bioorg Med Chem Lett, 2013):

target: T1, Platelet-activating factor acetylhydrolase (Homo sapiens, UniProt Q13093); assay: Inhibition of human plasma Lp-PLA2 using 2- thio-PAF as substrate incubated for 20 mins prior to substrate addition measured after 1 hr
T1 sequence (Q13093 whole entry): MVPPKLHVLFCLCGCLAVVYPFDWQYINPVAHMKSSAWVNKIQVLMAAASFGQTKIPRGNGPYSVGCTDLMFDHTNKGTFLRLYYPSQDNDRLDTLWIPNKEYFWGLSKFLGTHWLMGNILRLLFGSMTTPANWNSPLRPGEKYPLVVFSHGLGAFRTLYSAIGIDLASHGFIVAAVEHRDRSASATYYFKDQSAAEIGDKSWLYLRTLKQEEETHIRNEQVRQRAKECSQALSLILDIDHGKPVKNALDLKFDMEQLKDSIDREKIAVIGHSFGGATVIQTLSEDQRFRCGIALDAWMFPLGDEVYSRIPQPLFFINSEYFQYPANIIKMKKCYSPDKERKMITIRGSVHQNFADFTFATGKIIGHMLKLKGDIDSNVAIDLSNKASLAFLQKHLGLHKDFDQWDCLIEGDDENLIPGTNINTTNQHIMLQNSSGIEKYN

IC50, > 100 µM:
COc1cc(NS(=O)(=O)c2ccc(C)cc2)c2ncccc2c1
CCOC(=O)COc1cc(NS(=O)(=O)c2ccc(C)cc2)c2nc(C)ccc2c1
CS(=O)(=O)Nc1cccc2c(O)cc(C(=O)NC3CCCCCCCCCCCCC3)nc12
